# Data reported in patent publication US8691859B2 (priority 2005, dated 2014).
# Legend:
# [1] = test system: B. anthracis GFP sterne spores; assay: microbe, parasite or virus in culture; assay type: cell-based; conditions: for MIC: Bacillus anthracis, read-out: MIC B. anthracis spores
# [2] = test system: B. anthracis GFP sterne vegetative cells; assay: microbe, parasite or virus in culture; assay type: cell-based; conditions: for MIC: Bacillus anthracis, read-out: MIC B. anthracis vegetative cells
Compound,MIC [1] [µg/mL],MIC [2] [µg/mL],MIC B. anthracis spores [1] [µg/mL],MIC B. anthracis vegetative cells [2] [µg/mL]
"N=C(N)c1ccc2oc(/C=C/c3cc4ccc(C(=N)N)cc4o3)cc2c1 [NSC 294202, 2-[(E)-2-(5-carbamimidoylbenzofuran-2-yl)ethenyl]benzofuran-6-carboximidamide]",> 16.7,> 16.7,,
"N=C(N)c1ccc(NC(=O)c2cc3ccc(C(=N)N)cc3o2)cc1 [NSC 294207, 6-carbamimidoyl-N-(4-carbamimidoylphenyl)benzofuran-2-carboxamide]",> 15.8,> 15.8,,
"N=C(N)c1ccc(-c2cc3cc(C(=N)N)ccc3s2)cc1 [NSC 240891, 2-(4-carbamimidoylphenyl)benzothiophene-5-carboximidamide]",> 14.7,> 14.7,,
"C(=C\c1cc2cc(C3=NCCN3)ccc2o1)/c1ccc(C2=NCCN2)cc1 [NSC 308570, 2-[2-[(E)-2-[4-(4,5-dihydro-1H-imidazol-2-yl)phenyl]ethenyl]benzofuran-5-yl]-4,5-dihydro-1H-imidazole]",17.2,17.2,,
"N=C(N)c1ccc(-n2nc3ccc(C(=N)N)cc3n2)cc1 [NSC 240896, 2-(4-carbamimidoylphenyl)benzotriazole-5-carboximidamide]",> 14.1,> 14.1,,
"C(=C\c1cc2ccc(C3=NCCN3)cc2o1)/c1cc2ccc(C3=NCCN3)cc2o1 [NSC 294494, 2-[2-[(E)-2-[6-(4,5-dihydro-1H-imidazol-2-yl)benzofuran-2-yl]ethenyl]benzofuran-6-yl]-4,5-dihydro-1H-imidazole]",18.8,18.8,,
"C(=C\c1cc2cc(C3=NCCN3)ccc2s1)/c1ccc(C2=NCCN2)cc1 [NSC 317883, 2-[2-[(E)-2-[4-(4,5-dihydro-1H-imidazol-2-yl)phenyl]ethenyl]benzothiophen-5-yl]-4,5-dihydro-1H-imidazole]",17.8,17.8,,
"N=C(N)c1ccc2oc(CCc3cc4cc(C(=N)N)ccc4o3)cc2c1 [NSC 266477, 2-[2-(5-carbamimidoylbenzofuran-2-yl)ethyl]benzofuran-5-carboximidamide]",> 16.8,> 16.8,,
"NC(N)=Nc1ccc(-c2cc3cc(N=C(N)N)ccc3s2)cc1 [NSC 341910, 2-[2-[4-(diaminomethylideneamino)phenyl]benzothiophen-5-yl]guanidine]",15.9,> 15.9,,
"N=C(N)c1ccc2c(c1)=NC(=C(N)N)C=2 [NSC 330689, 2-(diaminomethylidene)indole-6-carboximidamide]",> 11,> 11,,
"C(/C=C/c1cc2cc(C3=NCCN3)ccc2o1)=C\c1ccc(C2=NCCN2)cc1 [NSC 308573, 2-[2-[(1E,3E)-4-[4-(4,5-dihydro-1H-imidazol-2-yl)phenyl]buta-1,3-dienyl]benzofuran-5-yl]-4,5-dihydro-1H-imidazole]",18.2,18.2,,
"Cc1cc(N)c2cc(NC(=O)Nc3ccc4nc(C)cc(N)c4c3)ccc2n1 [NSC 12155, 1,3-bis(4-amino-2-methyl-quinolin-6-yl)urea]",4.45,17.8,,
"C(=C\c1cc2ccc(C3=NCCN3)cc2[nH]1)/c1ccc(Oc2ccc(C3=NCCN3)cc2)cc1 [NSC 330690, 6-(4,5-dihydro-1H-imidazol-2-yl)-2-[(E)-2-[4-[4-(4,5-dihydro-1H-imidazol-2-yl)phenoxy]phenyl]ethenyl]-1H-indole]",2.6,2.6,,
"C(=C\c1cc2cc(C3=NCCN3)ccc2o1)/c1cc2cc(C3=NCCN3)ccc2o1 [NSC 278999, 2-[2-[(E)-2-[5-(4,5-dihydro-1H-imidazol-2-yl)benzofuran-2-yl]ethenyl]benzofuran-5-yl]-4,5-dihydro-1H-imidazole]",> 18.8,> 18.8,,
"N=C(N)c1ccc2cc(/C=C/c3cc4ccc(C(=N)N)cc4o3)oc2c1 [NSC 294199, 2-[(E)-2-(6-carbamimidoylbenzofuran-2-yl)ethenyl]benzofuran-6-carboximidamide]",8.34,16.7,,
"c1cc(-c2[nH]c3cc(C4=NCCN4)ccc3c2-c2cc3ccc(C4=NCCN4)cc3[nH]2)ccc1C1=NCCN1 [NSC 352341, 6-(4,5-dihydro-1H-imidazol-2-yl)-3-[6-(4,5-dihydro-1H-imidazol-2-yl)-1H-indol-2-yl]-2-[4-(4,5-dihydro-1H-imidazol-2-yl)phenyl]-1H-indole]",,,6.82,13.64
"C(=Cc1nc2ccccc2[nH]1)c1nc2ccccc2[nH]1 [NSC 103699, 2-[2-(1H-benzoimidazol-2-yl)ethenyl]-1H-benzoimidazole]",> 10.4,> 10.4,,
"c1cc(-c2cc3cc(C4=NCCN4)ccc3s2)ccc1C1=NCCN1 [NSC 308569, 2-[2-[4-(4,5-dihydro-1H-imidazol-2-yl)phenyl]benzothiophen-5-yl]-4,5-dihydro-1H-imidazole]",> 16.8,> 16.8,,
"N=C(N)c1ccc2nc(/C=C/c3nc4ccc(C(=N)N)cc4[nH]3)[nH]c2c1 [NSC 266475, 2-[(E)-2-(5-carbamimidoyl-3H-benzoimidazol-2-yl)ethenyl]-3H-benzoimidazole-5-carboximidamide]",> 16.7,> 16.7,,

Compound,MIC [1] [µg/mL],MIC [2] [µg/mL],MIC B. anthracis spores [1] [µg/mL],MIC B. anthracis vegetative cells [2] [µg/mL]
"Glycine, N-acetyl-, compound with 2,2′-(1,{2-ethenediyl)bis[5-benzofurancarboximidamide]} (2:1) [NSC 341082]",,,>23.16,>23.16
"O=C(Nc1ccc(C2=NCCN2)cc1)c1cc2ccc(C3=NCCN3)cc2o1 [NSC 294208, 6-(4,5-dihydro-1H-imidazol-2-yl)-N-[4-(4,5-dihydro-1H-imidazol-2-yl)phenyl]benzofuran-2-carboxamide]",> 17.8,> 17.8,,
"c1cc2cc(-c3cc4ccc(C5=NCCN5)cc4[nH]3)[nH]c2cc1C1=NCCN1 [NSC 330688, 6-(4,5-dihydro-1H-imidazol-2-yl)-2-[6-(4,5-dihydro-1H-imidazol-2-yl)-1H-indol-2-yl]-1H-indole]",0.551,1.1,,
"O=C(Nc1ccc(C2=NCCN2)cc1)c1cc2cc(C3=NCCN3)ccc2o1 [NSC 290111, 5-(4,5-dihydro-1H-imidazol-2-yl)-N-[4-(4,5-dihydro-1H-imidazol-2-yl)phenyl]benzofuran-2-carboxamide]",17.8,> 17.8,,
"N=C(N)c1ccc(-c2nc3ccc(C(=N)N)cc3[nH]2)cc1 [NSC 240894, 2-(4-carbamimidoylphenyl)-3H-benzoimidazole-5-carboximidamide]",> 14,> 14,,
"c1cc(-c2cc3ccc(C4=NCCN4)cc3s2)ccc1C1=NCCN1 [NSC 278996, 2-[2-[4-(4,5-dihydro-1H-imidazol-2-yl)phenyl]benzothiophen-6-yl]-4,5-dihydro-1H-imidazole]",> 16.8,> 16.8,,
"c1cc(-c2nc3ccc(-c4nc5ccc(C6=NCCN6)cc5[nH]4)cc3[nH]2)ccc1C1=NCCN1 [NSC 369721, 5-(4,5-dihydro-1H-imidazol-2-yl)-2-[2-[4-(4,5-dihydro-1H-imidazol-2-yl)phenyl]-3H-benzoimidazol-5-yl]-3H-benzoimidazole]",1.39,22.3,,
"Nc1ccc(C2=Cc3ccc(N)cc3S2(=O)=O)cc1 [NSC 266482, 2-(4-aminophenyl)-1,1-dioxo-benzothiophen-6-amine]",> 10.9,> 10.9,,
"N=C(N)c1ccc2oc(/C=C/c3cc4cc(C(=N)N)ccc4s3)cc2c1 [NSC 266472, 2-[(E)-2-(5-carbamimidoylbenzothiophen-2-yl)ethenyl]benzofuran-5-carboximidamide]",8.66,17.3,,
"N=C(N)c1ccc(/C=C/c2cc3cc(C(=N)N)ccc3o2)cc1 [NSC 300512, 2-[(E)-2-(4-carbamimidoylphenyl)ethenyl]benzofuran-5-carboximidamide]",> 15.1,> 15.1,,
"N=C(N)c1ccc(-c2[nH]c3cc(C(=N)N)ccc3c2N)cc1 [NSC 300509, 3-amino-2-(4-carbamimidoylphenyl)-1H-indole-6-carboximidamide]",> 14.6,> 14.6,,
"N=C(N)c1ccc(-c2cc(-c3ccc(C(=N)N)cc3)on2)cc1 [NSC 240900, 4-[3-(4-carbamimidoylphenyl)oxazol-5-yl]benzenecarboximidamide]",> 15.1,> 15.1,,
"N=C(N)c1ccc(-n2cc3cc(C(=N)N)ccc3n2)cc1 [NSC 240895, 2-(4-carbamimidoylphenyl)indazole-5-carboximidamide]",> 14,> 14,,
"N=C(N)c1ccc(-c2ccc(-c3ccc(C(=N)N)cc3)s2)cc1 [NSC 300510, 4-[5-(4-carbamimidoylphenyl)thiophen-2-yl]benzenecarboximidamide]",15.7,> 15.7,,
"Cc1cc2nc(C=Cc3nc4cc(C)c(C)cc4[nH]3)[nH]c2cc1C [NSC 92833, 2-[2-(5,6-dimethyl-1H-benzoimidazol-2-yl)ethenyl]-5,6-dimethyl-1H-benzoimidazole]",> 12.6,> 12.6,,
"CC(O)C(=O)O.N=C(N)c1ccc(-c2cc3ccc(C(=N)N)cc3s2)cc1 [NSC 240890, 2-(4-carbamimidoylphenyl)benzothiophene-6-carboximidamide; 2-hydroxypropanoic acid]",> 19,> 19,,
"N=C(N)c1ccc(-c2[nH]c3cc(C(=N)N)ccc3c2-c2ccccc2)cc1 [NSC 240897, 2-(4-carbamimidoylphenyl)-3-phenyl-1H-indole-6-carboximidamide]",8.52,17,,
"c1cc(-c2cc3ccc(C4=NCCN4)cc3[nH]2)ccc1C1=NCCN1 [NSC 278995, 6-(4,5-dihydro-1H-imidazol-2-yl)-2-[4-(4,5-dihydro-1H-imidazol-2-yl)phenyl]-1H-indole]",> 16.1,> 16.1,,
"OCCn1c(C=Cc2nc3ccccc3[nH]2)nc2ccccc21 [NSC 103701, 2-[2-[2-(1H-benzoimidazol-2-yl)ethenyl]benzoimidazol-1-yl]ethanol]",> 12.2,> 12.2,,
